The values below come from patent publication US20240189328A1, “COMBINATION OF NOREPINEPHRINE REUPTAKE INHIBITOR AND A C[…] USE IN TREATING SLEEP APNEA” (APNIMED, INC. (DELAWARE), priority 2021, published 2024).

For the assay, the system named is participants with moderate to severe OSA. Description: Open-label 4-period dose-escalation study of dronabinol+atomoxetine, polysomnography (Example 3). The assay is classed as in vivo, human. The conditions noted are these: atomoxetine 80 mg alone, week 1 PSG, compared to baseline.

Description: This study is designed to assess the safety and efficacy for OSA of three escalating dose combinations of atomoxetine with dronabinol, compared to baseline and to atomoxetine alone.
The present study (SEED) is an open-label, 4 consecutive period dose-escalation study of combinations of atomoxetine and dronabinol in participants with moderate to severe OSA. Participants will undergo initial pre-screening to determine potential study eligibility. […] Only participants who meet all non-PSG enrollment criteria at Visit 1 are eligible for a screening PSG. On a case by case basis and with agreement of the Sponsor a PSG conducted at the site within 3 months may be used instead of the Screening PSG.
Participants who meet all enrollment criteria will receive an escalating dose of atomoxetine the first week: 3 days of atomoxetine 40 mg followed by 4 days of atomoxetine 80 mg. Participants will then receive escalating dose combinations of atomoxetine and dronabinol for the next 3 weeks. The weekly dose schedule is as follows: • Week 1: atomoxetine 40 mg×3 days, then 80 mg×4 days • Week 2: atomoxetine 40 mg/dronabinol 2.5 mg • Week 3: atomoxetine 80 mg/dronabinol 5 mg • Week 4: atomoxetine 80 mg/dronabinol 10 mg […]

On to `CNCCC(Oc1ccccc1C)c1ccccc1` (single isomer, unassigned; (-)) [Ato 80 mg, (−)-N-Methyl-3-phenyl-3-(o-tolyloxy)-propylamine], for which the “Hypoxic burden (HB4)” value is listed as “significantly reduced”.
